According to a melting point compilation (Tetko et al.):

Row | melting point [°C] | Structure (SMILES)
1 | 73 | COc1cc(CCl)ccc1OCc1ccccc1
2 | 36 | CSc1ccccc1C#N
3 | 184 to 187 | O=C(O)C1CC(c2ccccc2)CCC1C(=O)c1ccccc1 (configuration not stated)
4 | 109 | Cc1cccc(Br)c1C(=O)O
5 | 67 to 68 | CC(=O)c1sc(-c2ccccc2)nc1C
6 | 208 | O=C(O)CCC(=O)c1ccc2c(c1)-c1cccc3cccc-2c13
7 | 206 | NC1=NCC2c3ccccc3Cc3ccccc3N12 (configuration not stated)
8 | 116 | Cc1cccc(C)c1C(=O)O
9 | 118 | C(=Cc1ccccn1)c1ccccn1
10 | 38 to 40 | Ic1ccc(Cc2ccccc2)cc1
11 | 251 | NNC(=O)c1ccc(O)c(N)c1
12 | 18 to 20 | O=C(Cl)c1cccc(S(=O)(=O)Cl)c1
13 | 212 to 216 | CC(=O)Nc1cc(F)ccc1C(=O)O
14 | 238 | O=C(c1ccc(-c2ccccc2)cc1)c1ccc(-c2ccccc2)cc1
15 | 151 | O=C(O)c1cc(-c2ccco2)on1
16 | 80 to 83 | CCOC(=O)c1cn2ccccc2n1
17 | 174 to 175 | CC(=O)C(=Nc1ccccc1)c1cc(C(=Nc2ccccc2)C(C)=O)c([N+](=O)[O-])cc1[N+](=O)[O-]
18 | 72 to 75 | O=C(c1ccccc1)c1ccc2c(c1)OCCCO2
19 | 63 to 63.6 | CC1=C(C#N)Cc2ccccc21
20 | 75 to 80 | N#CC(=S)Nc1ccccc1
21 | 80 | COc1ccc(C(C)=NO)cc1
22 | 273 | O=C(O)c1ccccc1C(=O)Nc1ccc(S(=O)(=O)N=c2[nH]ccs2)cc1

Row | melting point [°C] | Structure (SMILES)
23 | 106 | Ic1cccc2cccc(I)c12
24 | 179 | O=C(Nc1ccc(O)cc1)c1ccccc1O
25 | 143 to 144 | CC(C)(C)OC(=O)N1CCCN(c2cccc(O)c2)CC1
26 | 182 | O=C1C(c2ccccn2)=[N+]([O-])c2ccccc21
27 | 112 | C/C(=N\NC(N)=O)C(=O)C(C)Cc1ccccc1 (configuration not stated)
28 | 51 | COC(=O)CCc1cccc(CCC(=O)OC)c1
29 | -27.5 | CCOc1cccc(F)c1
30 | 74 to 78 | Nc1cccc(-c2cccnc2)c1
31 | 86 | COc1ccccc1NC(=O)CC(C)=O
32 | 152 to 154 | COc1cccc(OCc2ccccc2Cl)c1C#N
33 | 184 to 187 | O=C(O)/C=C/c1c[nH]c2ccccc12
34 | 70 to 73 | O=C(Cl)C1=Cc2ccccc2OC1
35 | 45 to 46 | CC(=Cc1ccccc1)C(=O)Cl
36 | 215 to 218 | Cc1cc2c3c(c1)c(O)c(-c1ccccc1)c(=O)n3CCC2
37 | 130 | O=C(NC(Cc1ccco1)C(=O)O)OCC1c2ccccc2-c2ccccc21 (configuration not stated)
38 | 32 | CCCCCCCCc1ccc(C(Cl)=Cc2ccc(OCC)cc2)cc1
39 | 189 to 191 | Cn1c(=O)c(C(N)=NO)cn(-c2ccccc2)c1=O
40 | 143 | COc1ccc(CNC(=O)c2ccccc2)cc1OCc1ccccc1
41 | 124 | CCOC(=O)COc1ccc2c(=O)cc(-c3ccccc3)oc2c1
42 | 61 to 63 | O=C=Nc1ccc(OCc2ccccc2)cc1
43 | 215 to 217 | O=C(O)c1cccc(N2CCCC2)c1
44 | 176 | NC(=O)C(Cc1ccc([N+](=O)[O-])cc1)c1ccccc1 (configuration not stated)

Continued, compound first:

Row | Structure (SMILES) | melting point [°C]
45 | Cc1cc(C)c(N)c(C)c1N | 90
46 | Cc1ccc(-c2ccc(C)s2)s1 | 65 to 68
47 | OC1OCC(Cc2ccc3c(c2)OCO3)C1Cc1ccc2c(c1)OCO2 (configuration not stated) | 132
48 | c1ccc2c(c1)OCCOCCOCCOCCOc1ccccc1OCCO2 | 48 to 52
49 | Nc1ccc2nccnc2c1 | 159
50 | CCC(Br)(CC)C(=O)NC(N)=O | 118
51 | Cc1ccc(S(=O)(=O)N(C)N=O)cc1 | 60
52 | CN(C)C(=S)N(C)C | 79.3
53 | Cn1c(N)cc(=O)[nH]c1=O | 300
54 | CC(CO)c1c(O)c(O)c2c(c1O)C(=O)C(O)=C1C(C)(C)CCCC12C (configuration not stated) | 237
55 | COC(=O)c1cnc(NN)nc1C(F)(F)F | 132 to 134
56 | C[C@]12CCC(=O)C[C@@H]1CC[C@@H]1[C@@H]2CC[C@]2(C)C(=O)CC[C@@]12O | 225 to 227
57 | C=C1C(=O)C23C4CC5C(C)(C)CCC(OC(C)=O)C5(C(OC(C)=O)O4)C2C(OC(C)=O)CC1C3OC(C)=O (configuration not stated) | 230
58 | OCC(F)(F)C(F)(F)C(F)(F)C(F)(F)CO | 69
59 | C=CC(=O)NCO | 74.5
60 | BrCc1ccccc1I | 56
61 | NC(=NO)c1cnccc1C(F)(F)F | 183 to 185
62 | CN(C)CCOc1ccc(N)cc1 | 55 to 57
63 | COc1cc(C=C[N+](=O)[O-])ccc1OCc1ccccc1 | 123
64 | N#Cc1cccc(Cl)n1 | 87
65 | NC(CP(=O)(O)O)C(=O)O (configuration not stated) | 227 to 229

Row | Structure (SMILES) | melting point [°C]
66 | Oc1ccc(C#Cc2ccc(F)cc2)cc1 | 149
67 | CCC[N+](=O)[O-] | -108
68 | CCOC(=O)c1c(C=O)c(C)n(C2CC2)c1C | 75 to 80
69 | COC(=O)c1sc(C(C)(C)C)cc1N | 94 to 95
70 | COP(=S)(OC)SCC(=O)N(c1ccc(Cl)cc1)C(C)C | 51
71 | Nc1c(F)c(F)c(-c2c(F)c(F)c(F)c(F)c2F)c(F)c1F | 146
72 | CCCCCCCCCCCCCCCCCCOC(C)=O | 34.5
73 | C[Si](C)(C)N=C=N[Si](C)(C)C | -23
74 | C=C(C(=O)OC1CC(C)=CCCC(CO)=CC2OC(=O)C(=C)C21)C(O)CO (configuration not stated) | 143
75 | CCCCCCCCCCN(CCCCCCCCCC)CCCCCCCCCC | -5 to -3
76 | O=S1OCC2C(CO1)C1(Cl)C(Cl)=C(Cl)C2(Cl)C1(Cl)Cl (configuration not stated) | 109
77 | CN1C(=O)C(=NNc2ccc(Br)cc2)C(=O)N(C)C1=O | 218
78 | O=C(OCCc1cc([N+](=O)[O-])c(CCOC(=O)c2ccccc2)cc1[N+](=O)[O-])c1ccccc1 | 157 to 158
79 | Clc1cc(Cl)c2oc3c(Cl)c(Cl)cc(Cl)c3c2c1 | 204
80 | CC(C)(CCCC(C)(C)C(=O)O)C(=O)O | 169 to 171
81 | BrCC(CBr)(CBr)CBr | 163
82 | CCOC(=O)c1sc2sc(C(=O)OCC)c(N)c2c1N | 200
83 | c1cc(CCCc2ccncc2)ccn1 | 55
84 | FC1(F)C(Cl)=C(Cl)C(F)(F)C1(F)F | -106
85 | CC1=C(C)C(=O)OC1=O | 96
86 | CCCCCCCCCCCCCCCCCCS(=O)(=O)Cl | 58

Row | Structure (SMILES) | melting point [°C]
87 | CC(=O)N(CC(O)CO)c1c(I)c(C(=O)NCC(O)CO)c(I)c(C(=O)NCC(O)CO)c1I (configuration not stated) | 177
88 | O=C(Nc1cccc(C(F)(F)F)c1)Nc1nnc(-c2ccc(Cl)cc2)o1 | 236 to 238
89 | CSc1nsc(S)n1 | 143 to 147
90 | NC(=O)C(CCN1CCCCCC1)(c1ccccc1)c1ccccc1 | 142
91 | CCOC1C(=O)NC2=C(C1=O)C(c1ccc(Br)cc1)c1c(c3ccccc3oc1=O)O2 (configuration not stated) | 196
92 | CC(=O)OCC#CCOC(C)=O | 28
93 | CCN1CCCC1CNC(=O)c1cc(S(=O)(=O)CC)ccc1OC (configuration not stated) | 182
94 | CC1CCCC(C)C1 (configuration not stated) | -90.1
95 | Cc1c(C)c(N)c(C)c(C)c1N | 150 to 153
96 | Cn1c(=O)oc(=O)c2ccccc21 | 165
97 | CCOC(=O)NNC(=O)NC1CCCCC1 | 115 to 117
98 | CC=CC(C)C | -120
99 | OC1C(Cl)(Cl)CCCC1(Cl)Cl | 55
100 | N[C@H](CCCCP(=O)(O)O)C(=O)O | 215 to 220
101 | CC(=O)N1CC(C)=CC1=O | 89 to 90
102 | COC(=O)CC[C@@H](C)[C@H]1CC[C@H]2[C@@H]3C(=O)C[C@@H]4CCCC[C@]4(C)[C@H]3CC[C@]12C | 92.9
103 | O=c1nc(SCc2ccc(Cl)cc2)c2c([nH]1)CCCC2 | 287 to 289
104 | CC(=O)Oc1c(C)cc(O)c(C)c1C | 108 to 109
105 | COC1=CC(=O)C2(C)CCC1C2(C)C (configuration not stated) | 55
106 | Cc1ccc([Si](C)(c2ccc(C)cc2)c2ccc(C)cc2)cc1 | 92
107 | N#Cc1c(NC(=O)CCl)sc2c1CCCC2 | 179 to 180

Row | Structure (SMILES) | melting point [°C]
108 | CC(C)(C)OOC(C)(C)C | -30
109 | CCOC(=O)c1sc2sc(C(=O)OCC)c(C)c2c1C | 187
110 | N#Cc1ccc(C=Cc2ccc(C=Cc3ccc(C#N)cc3[N+](=O)[O-])cc2)c([N+](=O)[O-])c1 | 350
111 | CCCCCCCCC=CCCCCCCCC(=O)OCC | -32
112 | CCCC/C=C/CCCC | -73
113 | CCOC(=O)c1cc(C(=O)CBr)on1 | 71 to 73
114 | O=C(O)CSCSCC(=O)O | 125 to 128
115 | C/C=C/C=C(C)/C=N/Nc1ccc([N+](=O)[O-])cc1[N+](=O)[O-] | 198 to 200
116 | Fc1cc2c(cc1F)Oc1cc(Br)c(Br)cc1O2 | 210
117 | COc1cc(CCN(Cc2cccc(O)c2)C(=O)C(F)(F)F)ccc1O | 51
118 | O=C1NC(=O)C(=NNc2ccc(Br)cc2)C(=O)N1 | 295
119 | COc1ccccc1-c1nnc2n1CN(C(C)C)CS2 | 207
120 | COc1ccc(C(O)(c2ccc(OC)cc2)c2ccc(OC)cc2)cc1 | 79
121 | OCc1ccc(-c2nccs2)cc1 | 94 to 97
122 | CN(C)c1ccc(P(=O)(c2ccc(N(C)C)cc2)c2ccc(N(C)C)cc2)cc1 | 275 to 280
123 | Cc1c(Cl)cc(F)cc1S(N)(=O)=O | 118 to 120
124 | OCc1ccc(SC(F)(F)F)cc1 | 52
125 | CCOc1cc(OCC)cc(OCC)c1 | 43.5
126 | COc1ccc2c(c1)CC1(CCC(c3ccc(C(C)(C)C)cc3)CC1)C2=O (configuration not stated) | 166 to 167
127 | CCOC(=O)c1c[nH]c(=S)nc1N | 256 to 258
